Data on 24 molecules can be found in US9779901B2, “High temperature material compositions for high temperature thermal cutoff devices” (Therm-O-Disc, Incorporated, priority 2008, dated 2017).

The conditions of data set [1]: estimated melting point temperature ranges of candidate organic compounds (Table 2); some compounds have several values, partly in parentheses, because analytic techniques differ; cited from earlier work.

Each structure is given as a SMILES string. Read-outs that look alike come from different tables or passages of the source.

`Cc1nc2ccccc2c2ccc([N+](=O)[O-])cc12` [Example 23]: the Melting Point fell in the range of 243 to 245 °C. Moreover, the “Melting Point” value in data set [1] is listed as 243-245° ° C.
Molecule `Nc1ccc2ccccc2c1-c1c(N)ccc2ccccc12` [Example 25] registered a Melting Point of 242.5 to 243 °C. The “Melting Point” value in data set [1] is 242.5-243° ° C.
`CC1=C(/C=C/C(C)=C/C=C/C(C)=C/C=C/C=C(C)/C=C/C=C(C)/C=C/C2=C(C)C(=O)C(=O)C2(C)C)C(C)(C)C(=O)C1=O` [Example 26] came in with a Melting Point of 243 °C. The “Melting Point” value in data set [1] is reported as 243° ° C.
As to `Cc1cc(C)c(C=O)cc1C` [Example 28], the Melting Point came to 243 °C. Moreover, in data set [1], the “Melting Point” value was 243° ° C.
Molecule `O=c1ccc2c(O)cccc2o1` [Example 31] gave a Melting Point of 244 to 247 °C. Further, the “Melting Point” value in data set [1] is 244-247° ° C.
For the molecule `Nc1ccc(C(=O)c2ccc(N)cc2)cc1` [Example 33], the Melting Point fell in the range of 244 to 245 °C. For the same molecule, in data set [1], the “Melting Point” value is 244-245° ° C.
The molecule `COc1ccccc1[C@H](C)C(=O)N1C[C@@H]2[C@H](C1)C(c1ccccc1)(c1ccccc1)CC[C@@]2(O)c1ccccc1OC` [Example 34] displayed a Melting Point of 244 °C. Besides, in data set [1], the “Melting Point” value is given as 244° ° C.
Molecule `Nc1ccn(C2C=CC(N)C(C(=O)O)O2)c(=O)n1` (stereo not drawn) [Example 35] had a Melting Point of 244 to 245 °C. For the same molecule, in data set [1], the “Melting Point” value was 244-245° ° C.
As to `O=Cc1c2ccccc2c(C=O)c2ccccc12` [Example 37], the Melting Point is 244 to 245 °C. Moreover, the “Melting Point” value in data set [1] is on record as 244-245° ° C.
As to `Nc1nc(N)nc(Cc2ccccc2)n1` [Example 39], the Melting Point turned out to be 245 °C. The “Melting Point” value in data set [1] is reported as 245° ° C.
`Cn1cnc2ncn(C)c2c1=O` [Example 41] came in with a Melting Point of 245 to 246 °C. The “Melting Point” value in data set [1] is listed as 245-246° ° C.
With `O=c1[nH][nH]c2ccccc12` [Example 44], the Melting Point lay within 245 to 247 °C. Besides, in data set [1], the “Melting Point” value was 245-247° ° C.
With `CC1(C)Oc2ccc(C#N)cc2[C@H](n2ccccc2=O)[C@H]1O` [Example 45], the Melting Point fell in the range of 245 to 246 °C. In data set [1], the “Melting Point” value is given as 245-246° ° C.
`Nc1ccc2c(c1)[nH]c1ccccc12` [Example 47] registered a Melting Point of 245 to 247 °C. Also, the “Melting Point” value in data set [1] is reported as 245-247° ° C.
With `Nc1nnc2ccccn12` [Example 48], the Melting Point lay in the range of 245 to 247 °C. In addition, the “Melting Point” value in data set [1] is on record as 245-247° ° C.
`c1cc2n[nH]nc2cn1` [Example 50] displayed a Melting Point of 246 to 247 °C. Also, the “Melting Point” value in data set [1] is 246-247° ° C.
Consider `Cc1c(C)c(CO)c(C)c(C)c1CO` [Example 51], for which the Melting Point lay within 246 to 248 °C. For the same molecule, in data set [1], the “Melting Point” value is 246-248° ° C.
Molecule `c1ccc2c(c1)-c1ccccc1C2C1c2ccccc2-c2ccccc21` [Example 56] returned a Melting Point of 246 °C. Also, in data set [1], the “Melting Point” value was 246° ° C.
Consider `C#C/C=C/C1C(O)CCCC12CCCC(CCCC#C)N2` (stereo not drawn) [Example 60], for which the Melting Point was in the range of 247 to 250 °C. Besides, the “Melting Point” value in data set [1] is 247-250° ° C.
On to `CCNC(=O)c1cc2c(cn1)[nH]c1ccccc12` [Example 61], for which the Melting Point fell in the range of 247 to 249 °C. The “Melting Point” value in data set [1] is 247-249° ° C.
With `Oc1cc2c3ccccc3ccc2c2ccccc12` [Example 68], the Melting Point is 248 to 250 °C. The “Melting Point” value in data set [1] is given as 248-250° ° C.
`c1ccc(-c2nc(-c3ccccc3)c(-c3ccccc3)nc2-c2ccccc2)cc1` [Example 69] showed a Melting Point of 248 °C. The “Melting Point” value in data set [1] is 248° ° C.
The molecule `c1ccc2nc3nccnc3nc2c1` [Example 71] had a Melting Point of 249 °C. In addition, the “Melting Point” value in data set [1] is recorded as 249° ° C.
In turn, `NNc1ccc(C(N)=O)nn1` [Example 72] yielded a Melting Point of 249 to 250 °C. Also, the “Melting Point” value in data set [1] is 249-250° ° C.
